Structures are written as SMILES. Calls of active or inactive are those of the source. The rule behind the calls is not given here.

This assay deals with Focal adhesion kinase 1 (Homo sapiens) (UniProt Q05397). Kind of assay: human PTK2 enzyme blockers, IC50 – biochemical, dose response (AID 810). Particulars: Recombinant FAK kinase activity inhibition assay.
Chain of Focal adhesion kinase 1 (Homo sapiens) (Q05397 whole entry, looked up): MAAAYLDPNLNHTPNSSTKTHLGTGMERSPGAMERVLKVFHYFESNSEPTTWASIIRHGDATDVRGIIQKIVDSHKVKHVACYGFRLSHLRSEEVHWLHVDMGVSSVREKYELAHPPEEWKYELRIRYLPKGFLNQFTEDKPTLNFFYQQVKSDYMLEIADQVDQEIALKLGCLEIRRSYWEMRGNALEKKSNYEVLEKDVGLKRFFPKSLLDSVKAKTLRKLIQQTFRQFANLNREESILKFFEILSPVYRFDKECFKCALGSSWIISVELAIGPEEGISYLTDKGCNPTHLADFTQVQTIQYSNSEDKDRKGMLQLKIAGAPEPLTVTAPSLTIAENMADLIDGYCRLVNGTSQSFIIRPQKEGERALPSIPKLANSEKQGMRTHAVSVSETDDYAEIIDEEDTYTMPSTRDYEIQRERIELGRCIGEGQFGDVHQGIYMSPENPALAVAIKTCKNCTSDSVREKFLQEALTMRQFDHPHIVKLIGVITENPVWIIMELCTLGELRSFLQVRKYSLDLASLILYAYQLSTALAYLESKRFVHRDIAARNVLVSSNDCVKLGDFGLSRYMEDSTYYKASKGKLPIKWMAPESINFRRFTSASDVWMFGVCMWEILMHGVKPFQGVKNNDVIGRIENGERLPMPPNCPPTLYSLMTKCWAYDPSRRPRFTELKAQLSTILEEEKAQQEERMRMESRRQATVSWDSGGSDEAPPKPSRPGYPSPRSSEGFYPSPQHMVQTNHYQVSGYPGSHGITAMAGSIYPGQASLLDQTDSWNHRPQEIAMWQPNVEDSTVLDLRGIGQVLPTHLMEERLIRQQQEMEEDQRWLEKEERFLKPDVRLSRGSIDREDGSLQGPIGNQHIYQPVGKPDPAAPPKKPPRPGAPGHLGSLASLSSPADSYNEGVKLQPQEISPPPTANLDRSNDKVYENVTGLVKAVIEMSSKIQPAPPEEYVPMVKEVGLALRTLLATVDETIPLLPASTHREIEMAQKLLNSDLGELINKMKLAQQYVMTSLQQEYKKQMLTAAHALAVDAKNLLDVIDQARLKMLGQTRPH
Consider `COc1cccc(CN2CC(O)=C(c3nc(-c4ccc(Cl)cc4)cs3)C2=N)c1`, for which the IC50 (as a rule, the concentration needed to halve the response being measured) was “inactive”.
The same measure for `CCOC(=O)C1=C(c2ccccc2)OC(N)=C(C#N)C1C1CCCCC1` (stereo unspecified): > 70 µM (inactive); for `COCCOC(=O)C1=C(C)NC2=C(C(=O)CC(c3cccs3)C2)C1c1ccsc1` (stereo unspecified): > 70 µM (inactive); for `O=c1c(/C=N/O)c(Nc2ccccc2)nc2ccccn12`: “inactive”.
For `CCOC(=O)c1sc2c(c1C)C(c1cccs1)C1=C(CCCC1=O)N2` (stereo unspecified) the value was > 70 µM (inactive); for `O=C1C(c2ccnc3ccccc23)=C(O)c2ccccc21`, 5.64 µM; for `COC(=O)C1=C(C)NC2=C(C(=O)CC(c3cccs3)C2)C1c1ccsc1` (stereo unspecified), > 70 µM (inactive).
Turning to `CCOC(=O)c1cccc2c1-c1ccccc1/C2=N/O`, the IC50 entry was “inactive”.
For `COC(=O)c1cccc2c1-c1ccccc1/C2=N/O` the value was 9.43 µM.
`CCOC(=O)C1=C(c2ccccc2)OC(N)=C(C#N)C1c1cccs1` (stereo unspecified): the IC50 is > 70 µM (inactive).
The same measure for `CN1CCc2c(sc3ncn4nc(-c5ccccc5O)nc4c23)C1`: “inactive”.
The same measure for `CCOCCOC(=O)C1=C(C)NC2=C(C(=O)CC(c3cccs3)C2)C1c1ccsc1` (stereo unspecified): > 70 µM (inactive); for `N#Cc1ccccc1/C=N/Nc1nc(-c2ccccc2)c2cc(Cl)ccc2n1`: “inactive”; for `O=[N+]([O-])c1cc(/C=N\Nc2nccs2)ccc1O`: 5.82 µM.
For the compound `Cc1nn2c(c1-c1ccccc1)NC1=C(C(=O)CCC1)C2c1ccccc1` (stereo unspecified), the IC50 was > 70 µM (inactive).
Consider `COc1cc(N=Cc2c(O)[nH]c3ccccc23)cc(OC)c1OC`, for which the IC50 is 3.13 µM.
